From patent publication US20250223268A1, “4-Methylsulfonylbenzamide Compound, Preparation Method, Herbicidal Composition And Use” (Jiangsu Flag Chemical Industry Co., Ltd., priority 2022, published 2025)

Tests used:
Format in all cases: in vivo
Echinochloa crusgalli [1] = test: Greenhouse herbicidal activity and crop safety comparison (Test Example 2)
Source text: (§1) Pre-emergence: Seeds of gramineous weeds (Echinochloa crusgalli, Echinochloa crusgalli var. zelayensis, Echinochloa phyllopogon, Eleusine indica, Digitaria sanguinalis, Leptochloa chinensis, Setaria viridis, Alopecurus japonicus Steud, Beckmannia syzigachne, Polypogon fugax, Alopecurus aequalis, Lolium multiflorum, Poa annua, Aegilops tataschii, Avena fatua, Alopecurus myosuroides, Bromus japonicus), broadleaf weeds (Eclipta prostrata, Amaranthus retroflexus, Rorippa indica, Myosoton aquaticum, Veronica didyma, Galium aparine, Solanum nigrum, Xanthium sibiricum, Conyza canadensis, Sesbania cannabina, Sagittaria trifolia), and Cyperus iria (Cyperus iria, Scirpus juncoides, Cyperus difformis, etc.) were sown in plastic pots (7 cm diameter) with nutrient soil and bottom holes. Crop seeds (including Oryza sativa subsp. indica, Oryza sativa subsp. japonica, Oryza sativa L. var. Glutinosa matsum, Triticum aestivum, Zea mays, Sorghum bicolor, Setaria italica, Glycine max, Gossypium hirsutum, Brassica napus, Arachis hypogaea) were sown in plastic pots (10 cm diameter) with nutrient soil and bottom holes. After sowing, the seeds were lightly covered with soil, and the soil was moistened via bottom water absorption. The pots were placed in a constant-temperature light-controlled growth chamber for 24 hours before soil spraying. Spraying was performed using a 3WP-2000 walking-type spray tower (produced by the Nanjing Agricultural Mechanization Institute, Ministry of Agriculture) with a spindle speed of 96 mm/r, spray height of 300 mm, effective spray width of 350 mm, spray area of 0.35 m^2, and nozzle flow rate of 390 mL/min.
(§2) After treatment, the test materials were air-dried naturally in the laboratory and then transferred to the growth chamber. Results were assessed 14-30 days later.
(§3) Post-emergence: Seeds of gramineous weeds (Echinochloa crusgalli, Echinochloa crusgalli var. zelayensis, Echinochloa phyllopogon, Eleusine indica, Digitaria sanguinalis, Leptochloa chinensis, Setaria viridis, Alopecurus japonicus Steud, Beckmannia syzigachne, Polypogon fugax, Alopecurus aequalis, Lolium multiflorum, Poa annua, Aegilops tataschii, Avena fatua, Alopecurus myosuroides, Bromus japonicus), broadleaf weeds (Eclipta prostrata, Amaranthus retroflexus, Rorippa indica, Myosoton aquaticum, Veronica didyma, Galium aparine, Solanum nigrum, Xanthium sibiricum, Conyza canadensis, Sesbania cannabina, Sagittaria trifolia), and Cyperus iria (Cyperus iria, Scirpus juncoides, Cyperus difformis, etc.) were sown in plastic pots (7 cm diameter) with nutrient soil and bottom holes. Crop seeds (including Oryza sativa subsp. indica, Oryza sativa subsp. japonica, Oryza sativa L. var. Glutinosa matsum, Triticum aestivum, Zea mays, Sorghum bicolor, Setaria italica, Glycine max, Gossypium hirsutum, Brassica napus, Arachis hypogaea) were sown in plastic pots (10 cm diameter) with nutrient soil and bottom holes. After sowing, the pots were placed in the growth chamber until the plants reached the 3-6 leaf stage for foliar spraying. Post-treatment, the materials were air-dried naturally and returned to the growth chamber. Results were assessed 14-21 days later.
(§4) • A: Fresh weight inhibition rate≥80% to 100%; • B: Fresh weight inhibition rate[…] to <80%; • C: Fresh weight inhibition rate≥40% to <60%; • D: Fresh weight inhibition rate≥20% to <40%; • E: Fresh weight inhibition rate<20%; • NT: Not tested.
(§5) Using the above method, the herbicidal activity and crop safety of the present compounds were compared with structurally similar known compounds (CK1, CK2, CK3, CK4: compounds 4-756, 4-759, 1-557, 1-563 from WO2012028579A1; CK5: compound 290-1 from WO2013087577A1; CK6: compound 1-129 from WO2011035874A1).

[2] = test system: Oryza sativa subsp. indica; test: as above
Source text: as §1, §2, §3, §4, §5

[3] = test system: Oryza sativa subsp. japonica; test: as above
Source text: as §1, §2, §3, §4, §5

Eclipta prostrata = test: Greenhouse herbicidal activity assay, post-emergence; conditions: Post-emergence test, rate 150 g a.i./hm^2, grade by fresh weight inhibition rate
Summary of the method: (§6)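 Letter grades (A: ≥80% to 100%; C: ≥40% to <60%; E: <20%) express fresh weight inhibition recorded 14-21 days post-spray. Weeds were treated on the leaves once they reached 3-6 leaves in chamber-grown pots, allowed to dry naturally, then kept in the chamber.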

Echinochloa crusgalli [4] = test: as above; conditions: Post-emergence test, rate 150 g a.i./hm^2, grade by fresh weight inhibition rate
Summary of the method: as §6

Digitaria sanguinalis = test: as above; conditions: Post-emergence test, rate 150 g a.i./hm^2, grade by fresh weight inhibition rate
Summary of the method: as §6

Cyperus iria = test: as above; conditions: Post-emergence test, rate 150 g a.i./hm^2, grade by fresh weight inhibition rate
Summary of the method: as §6

Leptochloa chinensis = test: as above; conditions: Post-emergence test, rate 150 g a.i./hm^2, grade by fresh weight inhibition rate
Summary of the method: as §6

| SMILES | Echinochloa crusgalli, control efficacy grading (fresh weight inhibition rate) (Echinochloa crusgalli [1]; Rate 150 g/ha) | Oryza sativa subsp. indica, grading of fresh weight inhibition rate (crop safety) ([2]; Rate 150 g/ha) | Oryza sativa subsp. japonica, grading of fresh weight inhibition rate (crop safety) ([3]; Rate 150 g/ha) | Control efficacy grade, Eclipta prostrata (Eclipta prostrata) | Control efficacy grade, Echinochloa crusgalli (Echinochloa crusgalli [4]) | Control efficacy grade, Digitaria sanguinalis (Digitaria sanguinalis) | Control efficacy grade, Cyperus iria (Cyperus iria) | Control efficacy grade, Leptochloa chinensis (Leptochloa chinensis) | Echinochloa crusgalli, control efficacy grading (fresh weight inhibition rate) (Echinochloa crusgalli [1]; Rate 75 g/ha) | Oryza sativa subsp. indica, grading of fresh weight inhibition rate (crop safety) ([2]; Rate 75 g/ha) | Oryza sativa subsp. japonica, grading of fresh weight inhibition rate (crop safety) ([3]; Rate 75 g/ha) | inhibition at 150 g/ha (Echinochloa crusgalli [1]; Echinochloa crus-galli, Rate 150 g/ha, read-out: Echinochloa crusgalli, control efficacy grading (fresh weight inhibition rate)) | pest or weed control at 150 g/ha (Eclipta prostrata; Eclipta prostrata, read-out: Control efficacy grade, Eclipta prostrata) | pest or weed control at 150 g/ha (Echinochloa crusgalli [4]; Echinochloa crus-galli, read-out: Control efficacy grade, Echinochloa crusgalli) | pest or weed control at 150 g/ha (Digitaria sanguinalis; Digitaria sanguinalis, read-out: Control efficacy grade, Digitaria sanguinalis) | pest or weed control at 150 g/ha (Cyperus iria; Cyperus iria, read-out: Control efficacy grade, Cyperus iria) | pest or weed control at 150 g/ha (Leptochloa chinensis; Dinebra chinensis, read-out: Control efficacy grade, Leptochloa chinensis) |
| --- | --- | --- | --- | --- | --- | --- | --- | --- | --- | --- | --- | --- | --- | --- | --- | --- | --- |
| CCC(C)S(=O)(=O)c1c(S(C)(=O)=O)ccc(C(=O)Nc2nnnn2C)c1Cl (racemic) [Compound 1-24] | A (Fresh weight inhibition rate≥80% to 100%) | E (Fresh weight inhibition rate<20%) | E (Fresh weight inhibition rate<20%) | A (Fresh weight inhibition rate≥80% to 100%) | A (Fresh weight inhibition rate≥80% to 100%) | B (Fresh weight inhibition rate≥260% to <80%) | A (Fresh weight inhibition rate≥80% to 100%) | A (Fresh weight inhibition rate≥80% to 100%) |  |  |  |  |  |  |  |  |  |
| CCC[S+]([O-])c1c(S(C)(=O)=O)ccc(C(=O)N(C)c2nnc(C)o2)c1Cl (single isomer, unassigned) [Compound 3-788] | A (Fresh weight inhibition rate≥80% to 100%) | E (Fresh weight inhibition rate<20%) | E (Fresh weight inhibition rate<20%) |  | A (Fresh weight inhibition rate≥80% to 100%) |  |  | A (Fresh weight inhibition rate≥80% to 100%) | A (Fresh weight inhibition rate≥80% to 100%) | E (Fresh weight inhibition rate<20%) | E (Fresh weight inhibition rate<20%) |  |  |  |  |  |  |
| CCCS(=O)(=O)c1c(S(C)(=O)=O)ccc(C(=O)Nc2nnnn2C)c1Cl [Compound 1-5, 2-chloro-N-(1-methyl-1H-tetrazol-5-yl)-4-(methylsulfonyl)-3-(propylsulfonyl)benzamide] |  | E (Fresh weight inhibition rate<20%) | E (Fresh weight inhibition rate<20%) |  |  |  |  |  |  |  |  | 80 to 100% | 80 to 100% | 80 to 100% | 80 to 100% | 80 to 100% | 80 to 100% |
| CC(C)S(=O)(=O)c1c(S(C)(=O)=O)ccc(C(=O)Nc2nnnn2C)c1Cl [Compound 1-10] | A (Fresh weight inhibition rate≥80% to 100%) | E (Fresh weight inhibition rate<20%) | E (Fresh weight inhibition rate<20%) | A (Fresh weight inhibition rate≥80% to 100%) | A (Fresh weight inhibition rate≥80% to 100%) | A (Fresh weight inhibition rate≥80% to 100%) | A (Fresh weight inhibition rate≥80% to 100%) | A (Fresh weight inhibition rate≥80% to 100%) |  |  |  |  |  |  |  |  |  |
| Cn1nnnc1NC(=O)c1ccc(S(C)(=O)=O)c(S(=O)(=O)CC2CC2)c1Cl [Compound 1-31] | A (Fresh weight inhibition rate≥80% to 100%) | E (Fresh weight inhibition rate<20%) | E (Fresh weight inhibition rate<20%) | A (Fresh weight inhibition rate≥80% to 100%) | A (Fresh weight inhibition rate≥80% to 100%) | A (Fresh weight inhibition rate≥80% to 100%) | A (Fresh weight inhibition rate≥80% to 100%) | A (Fresh weight inhibition rate≥80% to 100%) |  |  |  |  |  |  |  |  |  |
| Cn1nnnc1NC(=O)c1ccc(S(C)(=O)=O)c(S(=O)(=O)C2CC2)c1Cl [Compound 1-36] | A (Fresh weight inhibition rate≥80% to 100%) | E (Fresh weight inhibition rate<20%) | E (Fresh weight inhibition rate<20%) | A (Fresh weight inhibition rate≥80% to 100%) | A (Fresh weight inhibition rate≥80% to 100%) | A (Fresh weight inhibition rate≥80% to 100%) | A (Fresh weight inhibition rate≥80% to 100%) | A (Fresh weight inhibition rate≥80% to 100%) |  |  |  |  |  |  |  |  |  |
| Cn1nnnc1NC(=O)c1ccc(S(C)(=O)=O)c(S(=O)(=O)C2CCC2)c1Cl [Compound 1-41] | A (Fresh weight inhibition rate≥80% to 100%) | E (Fresh weight inhibition rate<20%) | E (Fresh weight inhibition rate<20%) | A (Fresh weight inhibition rate≥80% to 100%) | A (Fresh weight inhibition rate≥80% to 100%) |  | A (Fresh weight inhibition rate≥80% to 100%) | A (Fresh weight inhibition rate≥80% to 100%) |  |  |  |  |  |  |  |  |  |
| Cn1nnnc1NC(=O)c1ccc(S(C)(=O)=O)c(S(=O)(=O)C2CCCC2)c1Cl [Compound 1-46] | A (Fresh weight inhibition rate≥80% to 100%) | E (Fresh weight inhibition rate<20%) | E (Fresh weight inhibition rate<20%) | A (Fresh weight inhibition rate≥80% to 100%) | A (Fresh weight inhibition rate≥80% to 100%) |  | A (Fresh weight inhibition rate≥80% to 100%) |  |  |  |  |  |  |  |  |  |  |
